Data from PubChem BioAssay AID1963843 (Molecular Pharmacology Branch, DTP, NCI, 2024).

System: 616215-338-R-J1-PDC complex spheroid viability
Assay: Anticancer human tumor 616215-338-R-J1-PDC patient-derived colon adenocarcinoma cell line growth inhibition [POLQ]
Settings: for IC50: curve of first compound; for viability, T/C: stronger effect = lower value
Summary of the method: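 Three-cell-type spheroids modelling solid tumor plus stroma served as the readout system; POL inhibitors were tested individually and in combination, concentration ranges set by clinical Cmax where known.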

[1] = second compound 0.0316 µM, first compound 0.0316 µM
[2] = second compound 0.0316 µM, first compound 0.1 µM
[3] = second compound 0.0316 µM, first compound 0.316 µM
[4] = second compound 0.0316 µM, first compound 1 µM
[5] = second compound 0.0316 µM, first compound 3.16 µM
[6] = second compound 0.0316 µM, first compound 10 µM
[7] = second compound 0.1 µM, first compound 0.0316 µM
[8] = second compound 0.1 µM, first compound 0.1 µM
[9] = second compound 0.1 µM, first compound 0.316 µM
[10] = second compound 0.1 µM, first compound 1 µM
[11] = second compound 0.1 µM, first compound 3.16 µM
[12] = second compound 0.1 µM, first compound 10 µM
[13] = second compound 0.316 µM, first compound 0.0316 µM
[14] = second compound 0.316 µM, first compound 0.1 µM
[15] = second compound 0.316 µM, first compound 0.316 µM
[16] = second compound 0.316 µM, first compound 1 µM
[17] = second compound 0.316 µM, first compound 3.16 µM
[18] = second compound 0.316 µM, first compound 10 µM
[19] = second compound 1 µM, first compound 0.0316 µM
[20] = second compound 1 µM, first compound 0.1 µM
[21] = second compound 1 µM, first compound 0.316 µM
[22] = second compound 1 µM, first compound 1 µM
[23] = second compound 1 µM, first compound 3.16 µM
[24] = second compound 1 µM, first compound 10 µM
[25] = second compound 3.16 µM, first compound 0.0316 µM
[26] = second compound 3.16 µM, first compound 0.1 µM
[27] = second compound 3.16 µM, first compound 0.316 µM
[28] = second compound 3.16 µM, first compound 1 µM
[29] = second compound 3.16 µM, first compound 3.16 µM
[30] = second compound 3.16 µM, first compound 10 µM
[31] = second compound 10 µM, first compound 0.0316 µM
[32] = second compound 10 µM, first compound 0.1 µM
[33] = second compound 10 µM, first compound 0.316 µM
[34] = second compound 10 µM, first compound 1 µM
[35] = second compound 10 µM, first compound 3.16 µM
[36] = second compound 10 µM, first compound 10 µM
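Further: spheroids exposed to compounds for one week before readout.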
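Wherever viability, T/C is given: percent viability relative to DMSO vehicle wells taken as 100%.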

C#Cc1c(F)ccc2cc(O)cc(-c3ncc4c(N5CC6CCC(C5)N6)nc(OCC56CCCN5CC(F)C6)nc4c3F)c12 (stereo unspecified) + Cc1cccc(N(C)C(=O)C2C(O)CCN2c2nc(C)cc(C(F)(F)F)c2C#N)c1
IC50 (second compound 0.0316 µM): > 10 µM
IC50 (second compound 0.1 µM): > 10 µM
IC50 (second compound 0.316 µM): > 10 µM
IC50 (second compound 1 µM): > 10 µM
IC50 (second compound 3.16 µM): > 10 µM
IC50 (second compound 10 µM): > 10 µM
viability, T/C [1]: 88.6%
viability, T/C [2]: 109%
viability, T/C [3]: 94.2%
viability, T/C [4]: 101%
viability, T/C [5]: 113%
viability, T/C [6]: 71.8%
viability, T/C [7]: 101%
viability, T/C [8]: 110%
viability, T/C [9]: 103%
viability, T/C [10]: 109%
viability, T/C [11]: 103%
viability, T/C [12]: 73.9%
viability, T/C [13]: 99.8%
viability, T/C [14]: 101%
viability, T/C [15]: 98.1%
viability, T/C [16]: 99.6%
viability, T/C [17]: 91.8%
viability, T/C [18]: 69.8%
viability, T/C [19]: 103%
viability, T/C [20]: 107%
viability, T/C [21]: 94.9%
viability, T/C [22]: 108%
viability, T/C [23]: 104%
viability, T/C [24]: 64.3%
viability, T/C [25]: 104%
viability, T/C [26]: 99.2%
viability, T/C [27]: 101%
viability, T/C [28]: 101%
viability, T/C [29]: 103%
viability, T/C [30]: 66.7%
viability, T/C [31]: 101%
viability, T/C [32]: 101%
viability, T/C [33]: 108%
viability, T/C [34]: 96.3%
viability, T/C [35]: 73.9%
viability, T/C [36]: 67.8%

CCc1cc2c(N3CCc4c(cc(Cn5ccnc5)cc4-c4cn(C)nc4C(F)(F)F)C3=O)cc(C)nc2c(OC)n1 + Cc1cccc(N(C)C(=O)C2C(O)CCN2c2nc(C)cc(C(F)(F)F)c2C#N)c1
IC50 (second compound 0.0316 µM): 2.35 µM
IC50 (second compound 0.1 µM): 2.24 µM
IC50 (second compound 0.316 µM): 4.28 µM
IC50 (second compound 1 µM): 2.82 µM
IC50 (second compound 3.16 µM): > 10 µM
IC50 (second compound 10 µM): 2.76 µM
viability, T/C [1]: 107%
viability, T/C [2]: 120%
viability, T/C [3]: 83%
viability, T/C [4]: 60.6%
viability, T/C [5]: 46.4%
viability, T/C [6]: 45.7%
viability, T/C [7]: 108%
viability, T/C [8]: 104%
viability, T/C [9]: 74.8%
viability, T/C [10]: 57.4%
viability, T/C [11]: 49.6%
viability, T/C [12]: 43.2%
viability, T/C [13]: 99.8%
viability, T/C [14]: 103%
viability, T/C [15]: 81%
viability, T/C [16]: 70.8%
viability, T/C [17]: 45.7%
viability, T/C [18]: 49.1%
viability, T/C [19]: 105%
viability, T/C [20]: 102%
viability, T/C [21]: 85%
viability, T/C [22]: 66.1%
viability, T/C [23]: 48%
viability, T/C [24]: 40%
viability, T/C [25]: 106%
viability, T/C [26]: 102%
viability, T/C [27]: 90.2%
viability, T/C [28]: 58%
viability, T/C [29]: 54.6%
viability, T/C [30]: 50.8%
viability, T/C [31]: 106%
viability, T/C [32]: 92.3%
viability, T/C [33]: 81.7%
viability, T/C [34]: 61.1%
viability, T/C [35]: 48%
viability, T/C [36]: 40.4%

CCc1cc2c(N3CCc4c(cc(Cn5ccnc5)cc4-c4cn(C)nc4C(F)(F)F)C3=O)ccnc2c(OC)n1 + Cc1cccc(N(C)C(=O)C2C(O)CCN2c2nc(C)cc(C(F)(F)F)c2C#N)c1
IC50 (second compound 0.0316 µM): 8.63 µM
IC50 (second compound 0.1 µM): 6.35 µM
IC50 (second compound 0.316 µM): 4.78 µM
IC50 (second compound 1 µM): 6.68 µM
IC50 (second compound 3.16 µM): 3.9 µM
IC50 (second compound 10 µM): 5.8 µM
viability, T/C [1]: 98%
viability, T/C [2]: 102%
viability, T/C [3]: 86.4%
viability, T/C [4]: 69.4%
viability, T/C [5]: 63.9%
viability, T/C [6]: 46.8%
viability, T/C [7]: 107%
viability, T/C [8]: 106%
viability, T/C [9]: 83.2%
viability, T/C [10]: 84.2%
viability, T/C [11]: 52.7%
viability, T/C [12]: 46.3%
viability, T/C [13]: 106%
viability, T/C [14]: 102%
viability, T/C [15]: 94%
viability, T/C [16]: 70.8%
viability, T/C [17]: 54.5%
viability, T/C [18]: 43.8%
viability, T/C [19]: 113%
viability, T/C [20]: 104%
viability, T/C [21]: 88.4%
viability, T/C [22]: 74.1%
viability, T/C [23]: 58.8%
viability, T/C [24]: 45.2%
viability, T/C [25]: 97%
viability, T/C [26]: 94.8%
viability, T/C [27]: 95%
viability, T/C [28]: 63%
viability, T/C [29]: 59.3%
viability, T/C [30]: 41.3%
viability, T/C [31]: 98%
viability, T/C [32]: 88.6%
viability, T/C [33]: 90.9%
viability, T/C [34]: 61.7%
viability, T/C [35]: 60.7%
viability, T/C [36]: 43.5%
